IC50 and logD data for two compounds are collected here from patent US20250346576A1, “KCNT1 INHIBITORS COMPRISING A PYRAZOLE CORE AND METHODS OF USE” (PRAXIS PRECISION MEDICINES, INC., priority 2022, published 2025).

Data set [1] has as its target T1, KCNT1 (KNa1.1, Slack) (Homo sapiens, UniProt Q5JUK3).
T1 construct: expressed in transfected cells; host or cells: HEK-TREX (tetracycline inducible cell line)
T1 sequence (Q5JUK3 1-1230): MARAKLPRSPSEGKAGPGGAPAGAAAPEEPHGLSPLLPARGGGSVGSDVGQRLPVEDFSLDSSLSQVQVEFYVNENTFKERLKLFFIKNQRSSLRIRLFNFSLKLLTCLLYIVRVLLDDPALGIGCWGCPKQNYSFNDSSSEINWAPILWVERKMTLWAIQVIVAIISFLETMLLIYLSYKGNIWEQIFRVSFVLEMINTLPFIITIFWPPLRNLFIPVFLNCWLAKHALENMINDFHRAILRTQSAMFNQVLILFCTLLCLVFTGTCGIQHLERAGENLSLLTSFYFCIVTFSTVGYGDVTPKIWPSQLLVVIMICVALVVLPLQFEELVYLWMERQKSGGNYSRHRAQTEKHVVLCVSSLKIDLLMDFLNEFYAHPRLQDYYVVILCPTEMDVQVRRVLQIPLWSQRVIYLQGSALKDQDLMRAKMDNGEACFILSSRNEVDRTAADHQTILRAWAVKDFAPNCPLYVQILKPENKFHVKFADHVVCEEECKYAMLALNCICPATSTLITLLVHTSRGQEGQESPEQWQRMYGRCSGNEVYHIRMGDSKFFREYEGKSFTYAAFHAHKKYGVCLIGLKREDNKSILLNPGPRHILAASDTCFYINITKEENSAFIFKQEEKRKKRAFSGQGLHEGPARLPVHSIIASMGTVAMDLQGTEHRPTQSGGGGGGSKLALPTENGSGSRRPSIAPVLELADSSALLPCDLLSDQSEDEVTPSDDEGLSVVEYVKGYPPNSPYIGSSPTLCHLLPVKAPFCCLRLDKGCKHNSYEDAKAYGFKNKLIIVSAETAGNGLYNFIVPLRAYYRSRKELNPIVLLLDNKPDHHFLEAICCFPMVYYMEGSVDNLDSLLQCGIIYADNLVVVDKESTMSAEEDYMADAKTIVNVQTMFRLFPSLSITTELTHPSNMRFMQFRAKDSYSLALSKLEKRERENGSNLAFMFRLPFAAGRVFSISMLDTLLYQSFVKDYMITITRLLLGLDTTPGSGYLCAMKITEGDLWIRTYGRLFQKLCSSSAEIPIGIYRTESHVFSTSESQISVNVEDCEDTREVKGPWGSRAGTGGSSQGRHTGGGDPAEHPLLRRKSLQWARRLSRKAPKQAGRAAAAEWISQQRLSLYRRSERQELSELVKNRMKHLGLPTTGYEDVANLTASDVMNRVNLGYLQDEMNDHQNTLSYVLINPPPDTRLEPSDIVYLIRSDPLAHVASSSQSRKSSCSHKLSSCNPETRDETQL
As to the kind of experiment: KCNT1 patch clamp assay (SyncroPatch 384PE, tetracycline inducible HEK-TREX cell line). In kind it is cell-based. The settings on record: WT KCNT1, HEK-TREX cells, perforated patch, step from -80 mV to 0 mV, room temperature; read-out: WT (KCNT1 inhibition IC50). How it is done: Inhibition of KCNT1 (KNa1.1, Slack) was evaluated using a tetracycline inducible cell line (HEK-TREX). Currents were recorded using the SyncroPatch 384PE automated, patch clamp system. Pulse generation and data collection were performed with PatchController384 V1.3.0 and DataController384 V1.2.1 (Nanion Technologies). The access resistance and apparent membrane capacitance were estimated using built-in protocols. Current was recorded in perforated patch mode (10 μM escin) from a population of cells. The cells were lifted, triturated, and resuspended at 800,000 cells/ml. The cells were allowed to recover in the cell hotel prior to experimentation. Currents were recorded at room temperature. The external solution contained the following (in mM): NaCl 105, NMDG 40, KCl 4, MgCl2 1, CaCl2 5, and HEPES 10 (pH=7.4, Osmolarity ˜300 mOsm). The extracellular solution was used as the wash, reference, and compound delivery solution. The internal solution contained the following (in mM): NaCl 70, KF 70, KCl 10, EGTA 5, HEPES 5, and Escin 0.01 (pH=7.2, Osmolarity ˜295 mOsm). Escin is made at a 5 mM stock in water, aliquoted, and stored at −20° C. The compound plate was created at 2× concentrated in the extracellular solution. The compound was diluted to 1:2 when added to the recording well. The amount of DMSO in the extracellular solution was held constant at the level used for the highest tested concentration. A holding potential of −80 mV with a 100 ms step to 0 mV was used. Mean current was measured during the step to 0 mV. […] The average mean current from 3 sweeps was calculated and the percent inhibition of each compound was calculated. The percent inhibition as a function of the compound concentration was fit with a Hill equation to derive IC50, slope, minimum parameters, and maximum parameters. If KCNT1 inhibition was less than 50% at the highest tested concentration or if an IC50 could not be calculated, then a percent inhibition was reported in place of the IC50.
In this table, “A” indicates IC50 of less than or equal to 1 μM; “B” indicates inhibition of between 1 μM to 20 μM; and “C” indicates inhibition of greater than or equal to 20 μM.

Data set [2] can be described thus: Log D assay (1-octanol/buffer shake flask, LC/MS/MS). The settings on record: 1-octanol/phosphate buffer; 1-octanol / 0.1 M phosphate buffer pH 7.4. In kind it is physicochemical. An excerpt:
Log D: The Log D assay is a miniaturized 1-octanol/buffer shake flask method followed by LC/MS/MS analysis. It is typically measured by determining the partition of a compound between an organic solvent (1-octanol) and an aqueous buffer (0.1 M phosphate buffer, pH 7.4; Varied buffer pH can be set). Since log D is pH dependent, the pH of the aqueous phase is always specified and is commonly measured at pH 7.4, the physiological pH of body fluids. […] Correct the peak areas by dilution factors and embedded internal standard, and the ratio of the corrected peak areas will be used to calculate the results (Log D value). • 8) Use the QC samples to monitor the process Log D determination. • 9) Data Analysis: The Log D value for each compound is calculated by the following equation: […]

Consider `Cn1nc(C(F)(F)F)cc1C(=O)NC(C)(C)c1cc(-c2ccnc(C(F)(F)F)c2)nn1C` [Compound 1063, 1-methyl-N-(2-(1-methyl-3-(2-(trifluoromethyl)pyridin-4-yl)-1H-pyrazol-5-yl)propan-2-yl)-3-(trifluoromethyl)-1H-pyrazole-5-carboxamide], for which the IC50 in data set [1] was at most 1000 nM. Moreover, the log distribution coefficient (logD) at 1 h in data set [2] came to 3.

With `Cn1nc(C(F)(F)F)cc1C(=O)NC1(c2cc(-c3ccnc(C(F)(F)F)c3)nn2C)CCC1` [Compound 1064, 1-methyl-N-(1-(1-methyl-3-(2-(trifluoromethyl)pyridin-4-yl)-1H-pyrazol-5-yl)cyclobutyl)-3-(trifluoromethyl)-1H-pyrazole-5-carboxamide], in data set [1], the IC50 is at most 1000 nM. In data set [2], this compound showed a logD at 1 h of 4.4.
